Measurements from ChEMBL document CHEMBL1201862, “PubChem BioAssay data set” (2004).
Several values for one entry are separate records, joined by “and”; a condition that tells them apart may be missing. Identical values can stand only once.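 Briefly, cells in 96-well plates were exposed to five compound concentrations for 48 h, and endpoints were estimated by linear interpolation. Abbreviation: GI50, concentration required for 50% inhibition of growth.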 Activity calls are given as the source filed them. Cut-off read from the data, not from the text of the source: active = GI50 up to about 1.1 µM and inactive = higher. Non-standard residues stand in square brackets, D forms with d. Residues, ends and D or L forms follow the SMILES beside them. *: point of attachment. Benzoyl(4-OMe) = COc1ccc(C(=O)*)cc1; 2Thi = N[CH](Cc1cccs1)C(=O)O

Experiments:
Assay in all cases: NCI tumour cell line growth inhibition, 48 h
786-0 = test system: 786-0
A498 = test system: A498
A549 = test system: A549
ACHN = test system: ACHN
CCRF-CEM = test system: CCRF-CEM
Hs-578T = test system: Hs-578T
IGROV-1 = test system: IGROV-1
K562 = test system: K562
MDA-MB-231 = test system: MDA-MB-231
MDA-MB-435 = test system: MDA-MB-435
OVCAR-8 = test system: OVCAR-8
SF-539 = test system: SF-539
SNB-75 = test system: SNB-75
SR = test system: SR
T47D = test system: T47D
TK-10 = test system: TK-10
UACC-257 = test system: UACC-257
UACC-62 = test system: UACC-62

SMILES | GI50 (786-0) | GI50 (A498) | GI50 (A549) | GI50 (ACHN) | GI50 (CCRF-CEM) | GI50 (Hs-578T) | GI50 (IGROV-1) | GI50 (K562) | GI50 (MDA-MB-231) | GI50 (MDA-MB-435) | GI50 (OVCAR-8) | GI50 (SF-539) | GI50 (SNB-75) | GI50 (SR) | GI50 (T47D) | GI50 (TK-10) | GI50 (UACC-257) | GI50 (UACC-62)
CN1C/C(=C\c2ccc(Cl)cc2)C(=O)/C(=C/c2ccc(Cl)cc2)C1 | 0.354 µM (active) | 1.55 µM (inactive) | 2.2 µM (inactive) | 3.15 µM (inactive) | 0.323 µM (active) | 2.65 µM (inactive) | 1.4 µM (inactive) | 0.33 µM (active) | 1.12 µM (active) | 1.72 µM (inactive) | 0.232 µM (active) | 0.512 µM (active) | 0.635 µM (active) | 0.323 µM (active) | 4.48 µM (inactive) | 8.75 µM (inactive) | 0.443 µM (active) | 2.22 µM (inactive)
Cc1c(C(=O)OCc2ccccc2)[n+]([O-])c2cc(Cl)c(Cl)cc2[n+]1[O-] | 16 µM (inactive) | 20.5 µM (inactive) | 11.1 µM (inactive) | 21.4 µM (inactive) | 14.8 µM (inactive) | 19.2 µM (inactive) | 5.83 µM (inactive) | 23.6 µM (inactive) | 19.5 µM (inactive) | 19.8 µM (inactive) | 18.2 µM (inactive) | 22.5 µM (inactive) | – | 5.37 µM (inactive) | 5.48 µM (inactive) | 18.7 µM (inactive) | 15.1 µM (inactive) | 14.9 µM (inactive)
C#CC1=CC(=O)C(OC)=CC1=O | 3.01 µM (inactive) | > 100 µM (inactive) | 33.9 µM (inactive) | 3.44 µM (inactive) | 7.36 µM (inactive) | 95.1 µM (inactive) | – | 5.06 µM (inactive) | 16.4 µM (inactive) | 18.1 µM (inactive) | – | 42.7 µM (inactive) | < 0.01 µM (active) | 6.7 µM (inactive) | 23 µM (inactive) | 48.6 µM (inactive) | 41.6 µM (inactive) | 15.7 µM (inactive)
N#Cc1c(-c2ccccc2)c(C#N)c(=S)n(C2OCC(O)C(O)C2O)c1N (centres undefined) | > 100 µM (inactive) | > 100 µM (inactive) | > 100 µM (inactive) | > 100 µM (inactive) | > 100 µM (inactive) | > 100 µM (inactive) | > 100 µM (inactive) | > 100 µM (inactive) | > 100 µM (inactive) | > 100 µM (inactive) | > 100 µM (inactive) | > 100 µM (inactive) | > 100 µM (inactive) | > 100 µM (inactive) | 75.9 µM (inactive) and 77.4 µM (inactive) | 30.8 µM (inactive) and 61.5 µM (inactive) | > 100 µM (inactive) | > 100 µM (inactive)
CCCCCCCCCCCC(=O)c1c(O)cc(C)oc1=O | 80.9 µM (inactive) | 81.8 µM (inactive) | 27.8 µM (inactive) | 31.5 µM (inactive) | 23.7 µM (inactive) | 51.6 µM (inactive) | 55.5 µM (inactive) | 28.6 µM (inactive) | 28.8 µM (inactive) | 49.5 µM (inactive) | 33.5 µM (inactive) | 23.8 µM (inactive) | 36.4 µM (inactive) | > 10 µM (inactive) | 34.8 µM (inactive) | > 100 µM (inactive) | 57.9 µM (inactive) | 49.7 µM (inactive)
O=C(NNC(=O)c1ccccc1O)c1cccc(Br)c1 | 44.9 µM (inactive) | > 92.9 µM (inactive) | 25.5 µM (inactive) | 7 µM (inactive) | 0.512 µM (active) | > 66.7 µM (inactive) | 18.3 µM (inactive) | 46.7 µM (inactive) | 18.2 µM (inactive) | 37.9 µM (inactive) | 20.9 µM (inactive) | > 70 µM (inactive) | > 71.8 µM (inactive) | 12.9 µM (inactive) | > 51.6 µM (inactive) | > 100 µM (inactive) | > 77.6 µM (inactive) | 47.3 µM (inactive)
COc1cc2c(=O)cnoc2cc1O | > 100 µM (inactive) | 39.5 µM (inactive) | > 100 µM (inactive) | > 100 µM (inactive) | > 100 µM (inactive) | > 100 µM (inactive) | > 100 µM (inactive) | > 100 µM (inactive) | > 100 µM (inactive) | > 100 µM (inactive) | > 100 µM (inactive) | > 100 µM (inactive) | > 100 µM (inactive) | > 100 µM (inactive) | > 100 µM (inactive) | > 100 µM (inactive) | > 100 µM (inactive) | > 100 µM (inactive)
O=C(O)C1CC(O)CN1 (centres undefined) | > 100 µM (inactive) | > 100 µM (inactive) | > 100 µM (inactive) | > 100 µM (inactive) | > 100 µM (inactive) | > 100 µM (inactive) | > 100 µM (inactive) | > 100 µM (inactive) | > 100 µM (inactive) | > 100 µM (inactive) | > 100 µM (inactive) | > 100 µM (inactive) | > 100 µM (inactive) | > 100 µM (inactive) | > 100 µM (inactive) | > 100 µM (inactive) | > 100 µM (inactive) | > 100 µM (inactive)
Cc1ccc2c(c1)CC1(Cc3cc(C)ccc3C1=O)C2=O | > 100 µM (inactive) | > 100 µM (inactive) | > 100 µM (inactive) | > 100 µM (inactive) | > 100 µM (inactive) | > 100 µM (inactive) | > 100 µM (inactive) | > 100 µM (inactive) | > 100 µM (inactive) | > 100 µM (inactive) | > 100 µM (inactive) | > 100 µM (inactive) | > 100 µM (inactive) | > 100 µM (inactive) | > 100 µM (inactive) | > 100 µM (inactive) | > 100 µM (inactive) | –
COC(=O)C1CCC(=O)N1C(c1ccc(OC)cc1)c1ccc(OC)cc1 (centres undefined) | > 100 µM (inactive) | > 100 µM (inactive) | > 100 µM (inactive) | > 100 µM (inactive) | > 100 µM (inactive) | > 100 µM (inactive) | > 100 µM (inactive) | > 100 µM (inactive) | > 100 µM (inactive) | > 100 µM (inactive) | > 100 µM (inactive) | > 100 µM (inactive) | > 100 µM (inactive) | > 100 µM (inactive) | 78.9 µM (inactive) | > 100 µM (inactive) | > 100 µM (inactive) | > 100 µM (inactive)
CC(=O)O[C@H]1C(=O)[C@@]2(C)[C@H]([C@H](OC(=O)c3ccccc3)[C@]3(O)C[C@H](OC(=O)[C@H](OC(=O)OCCC(O)CO)[C@@H](NC(=O)c4ccccc4)c4ccccc4)C(C)=C1C3(C)C)[C@]1(OC(C)=O)CO[C@@H]1C[C@@H]2O (some centres undefined) | 0.0105 µM (active) | 0.141 µM (active) | < 0.0103 µM (active) | 1.09 µM (active) | < 0.01 µM (active) | < 0.01 µM (active) | < 0.01 µM (active) | < 0.01 µM (active) | < 0.0135 µM (active) | < 0.01 µM (active) | < 0.0221 µM (active) | < 0.01 µM (active) | < 0.0114 µM (active) | < 0.01 µM (active) | < 0.01 µM (active) | 0.998 µM (active) | < 0.01 µM (active) | < 0.01 µM (active)
O=c1oc2cc(/N=C/c3ccc4c(c3)OCO4)ccc2c2ccccc12 | 35 µM (inactive) | 49.8 µM (inactive) | > 100 µM (inactive) | 58.1 µM (inactive) | 50.4 µM (inactive) | > 100 µM (inactive) | 78.3 µM (inactive) | > 100 µM (inactive) | 77.4 µM (inactive) | > 100 µM (inactive) | 42.5 µM (inactive) | 47 µM (inactive) | 15 µM (inactive) | 25.5 µM (inactive) | 43.7 µM (inactive) | 41.4 µM (inactive) | > 100 µM (inactive) | 55.8 µM (inactive)
C[C@H]1[C@H](C)CC[C@]2(C(=O)OC3OC(CO)C(O)C(O)C3O)CC[C@]3(C)C(=CC[C@@H]4[C@@]5(C)C[C@H]6OC(=O)c7cc(O)c(O)c(O)c7-c7c(cc(O)c(O)c7O)C(=O)O[C@@H]6C(CO)(CO)[C@@H]5CC[C@]43C)[C@H]12 (some centres undefined) | 19.5 µM (inactive) | > 100 µM (inactive) | > 100 µM (inactive) | > 100 µM (inactive) | 24.5 µM (inactive) | > 100 µM (inactive) | > 100 µM (inactive) | 49.3 µM (inactive) | 15.6 µM (inactive) | 18.7 µM (inactive) | 55.8 µM (inactive) | > 100 µM (inactive) | > 100 µM (inactive) | 27 µM (inactive) | > 74.8 µM (inactive) | > 100 µM (inactive) | > 100 µM (inactive) | 99.3 µM (inactive)
CCC(C)C(NC(=O)C(Cc1cccs1)NC(=O)C(CC(C)C)NC(=O)C(CC(C)C)NC(=O)C(CCCCN)NC(=O)C(CCCNC(=N)N)NC(=O)c1ccc(OC)cc1)C(=O)NC(CC(C)C)C(N)=O (centres undefined) ({Benzoyl(4-OMe)}-RKLL[2Thi]IL-NH2; configuration not given here) | > 100 µM (inactive) | > 100 µM (inactive) | > 100 µM (inactive) | > 100 µM (inactive) | 78.2 µM (inactive) | > 100 µM (inactive) | – | > 100 µM (inactive) | > 100 µM (inactive) | > 100 µM (inactive) | > 100 µM (inactive) | > 100 µM (inactive) | > 100 µM (inactive) | > 100 µM (inactive) | > 100 µM (inactive) | > 100 µM (inactive) | > 100 µM (inactive) | > 100 µM (inactive)
NS(=O)(=O)c1ccc(Nc2c3ccccc3nc3c(C(=O)NC(CO)(CO)CO)cccc23)cc1 | 0.0201 µM (active) | 0.224 µM (active) | 0.123 µM (active) | 0.19 µM (active) | 0.0557 µM (active) | 0.154 µM (active) | 0.136 µM (active) | 0.19 µM (active) | 0.195 µM (active) | 0.212 µM (active) | 0.181 µM (active) | 0.204 µM (active) | – | 0.334 µM (active) | 0.0815 µM (active) | 0.164 µM (active) | 0.181 µM (active) | 0.138 µM (active)
